Laboratory results taken from patent publication US7595401B2, “Therapeutic compounds and their use in cancer” (Myriad Pharmaceuticals, Inc., priority 2006, dated 2009).

Tested on: purified human Hsp90
Assay: Binding Assay: fluorescence polarization with BODIPY-labeled geldanamycin
Conditions: 5 μM compound, BODIPY-GM 10 nM, Hsp90 30 nM
How it was run: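 Compounds in 2% DMSO final compete with 10 nM BODIPY-GM for 30 nM purified human Hsp90, incubated overnight at room temperature in pH 7.3 HEPES buffer containing Na2MoO4 and DTT. Polarization (mP, ex/em 485/530) normalized to DMSO gives percent inhibition; autofluorescence-confounded data excluded.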

Row | SMILES | % Inhibition at 5 μM Compound Concentration
1 | COc1ccc(OC)c(Sc2nc3c(N)ncn(CCc4ccc(F)cc4Cl)c-3n2)c1 [Example 140, 3-[2-(2-chloro-4-fluoro-phenyl)-ethyl]-8-(2,5-dimethoxy-phenylsulfanyl)-3H-purin-6-ylamine] | 0%
2 | COc1ccc(OC)c(Sc2nc3c(N)ncn(C4Cc5ccccc5C4O)c-3n2)c1 (centres unmarked) [Example 236, 2-{6-Amino-8-[(2,5-dimethoxyphenyl)thio]-3H-purin-3-yl}indan-1-ol] | 0%
3 | CC(C)(C)OC(=O)N1CCC[C@H](CCn2cnc(N)c3nc(Sc4cc5c(cc4Br)OCO5)nc2-3)C1 [Example 393, tert-Butyl (3R)-3-(2-{6-amino-8-[(6-bromo-1,3-benzodioxol-5-yl)thio]-3H-purin-3-yl}ethyl)piperidine-1-carboxylate] | 0%
4 | Cc1ccccc1CCn1cnc(N)c2nc(Sc3cc4c(cc3Br)OCO4)nc1-2 [Example 156, 8-(6-bromo-benzo[1,3]dioxol-5-ylsulfanyl)-3-(2-o-tolyl-ethyl)-3H-purin-6-ylamine] | 16%
5 | Nc1ncn(CCc2ccccc2)c2nc(Sc3cc(OC(F)(F)F)ccc3Cl)nc1-2 [Example 229, 8-{[2-Chloro-5-(trifluoromethoxy)phenyl]thio}-3-(2-phenylethyl)-3H-purin-6-amine] | 24%
6 | CCOc1cc(CCn2cnc(N)c3nc(Sc4cc5c(cc4Br)OCO5)nc2-3)ccc1OC [Example 118, 8-(6-bromo-benzo[1,3]dioxol-5-ylsulfanyl)-3-[2-(3-ethoxy-4-methoxy-phenyl)-ethyl]-3H-purin-6-ylamine] | 0%
7 | Nc1ncn(CCc2ccccc2Cl)c2nc(Sc3cc4c(cc3Br)OCCO4)nc1-2 [Example 234, 8-[(7-Bromo-2,3-dihydro-1,4-benzodioxin-6-yl)thio]-3-[2-(2-chlorophenyl)ethyl]-3H-purin-6-amine] | 0%
8 | COc1cc(Sc2nc3c(N)ncn(CCC4CCN(C=O)CC4)c-3n2)c2ocnc2c1 [Example 535, 4-(2-{6-Amino-8-[(5-methoxy-1,3-benzoxazol-7-yl)thio]-3 H-purin-3-yl}ethyl)piperidine-1-carbaldehyde] | 1.00%
9 | Cc1ncsc1CCn1cnc(N)c2nc(Sc3cc4c(cc3Br)OCO4)nc1-2 [Example 331, 8-[(6-Bromo-1,3-benzodioxol-5-yl)thio]-3-[2-(4-methyl-1,3-thiazol-5-yl)ethyl]-3H-purin-6-amine] | 25.0%

Same assay, conditions: BODIPY-GM 10 nM, Hsp90 30 nM

Row | SMILES | IC50
10 | Nc1ncnc2c1nc(Sc1cc3c(cc1Br)OCO3)n2CCc1cccs1 [Example 203, 8-(6-Bromo-benzo[1,3]dioxol-5-ylsulfanyl)-9-(2-thiophen-2-yl-ethyl)-9H-purin-6-ylamine] | 90 nM
11 | COc1cc(Sc2nc3c(N)ncnc3n2CCc2ccccc2Cl)c(OC)cc1Cl [Example 260, 8-[(4-Chloro-2,5-dimethoxyphenyl)thio]-9-[2-(2-chlorophenyl)ethyl]-9H-purin-6-amine] | 1500 nM
12 | CN1[C@@H]2CC[C@H]1C[C@@H](CCn1c(Sc3cc4c(cc3Br)OCO4)nc3c(N)ncnc31)C2 [Example 426, 8-[(6-Bromo-1,3-benzodioxol-5-yl)thio]-9-{2-[(3-endo)-8-methyl-8-azabicyclo[3.2.1]oct-3-yl]ethyl}-9H-purin-6-amine] | 150 nM
13 | COc1cc(Sc2nc3c(N)ncnc3n2CCC2CCN(C=O)CC2)c(OC)cc1Cl [Example 558, 4-(2-{6-Amino-8-[(4-chloro-2,5-dimethoxyphenyl)thio]-9 H-purin-9-yl}ethyl)piperidine-1-carbaldehyde] | > 5000 nM
14 | Nc1ncnc2c1nc(Sc1cc3c(cc1Br)OCO3)n2CCC1CCN(C(=O)C2CCC2)CC1 [Example 512, 8-[(6-Bromo-1,3-benzodioxol-5-yl)thio]-9-{2-[1-(cyclobutylcarbonyl)piperidin-4-yl]ethyl}-9 H-purin-6-amine] | 110 nM
